From PubChem BioAssay (NCI)
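Results reflect a 48-hour exposure of cells in 96-well plates to compound at five concentrations. TGI is the concentration that stops growth completely.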

Tests used:
Assay in all cases: inhibition of tumour cell growth, NCI panel, 48 h
[1] = tested on: SK-MEL-5 melanoma
[2] = tested on: HOP-62 NSCLC
[3] = tested on: M14 melanoma
[4] = tested on: HCT-15 colon
[5] = tested on: DU-145 prostate
[6] = tested on: HL-60(TB) leukemia
[7] = tested on: SF-268 CNS
[8] = tested on: CAKI-1 renal
[9] = tested on: A498 renal
[10] = tested on: OVCAR-4 ovarian
[11] = tested on: NCI-H460 lung
[12] = tested on: T-47D breast
[13] = tested on: SW-620 colon
[14] = tested on: HT29 colon
[15] = tested on: LOX IMVI melanoma
[16] = tested on: IGROV1 ovarian
[17] = tested on: SR leukemia
[18] = tested on: OVCAR-3 ovarian
[19] = tested on: UACC-62 melanoma
[20] = tested on: TK-10 renal
[21] = tested on: SF-539 CNS
[22] = tested on: BT-549 breast
[23] = tested on: KM12 colon
[24] = tested on: SF-295 CNS
[25] = tested on: NCI-H226 lung
[26] = tested on: HOP-92 NSCLC
[27] = tested on: NCI-H522 lung
[28] = tested on: SK-MEL-28 melanoma
[29] = tested on: MOLT-4 leukemia
[30] = tested on: U251 CNS
[31] = tested on: SNB-75 CNS
[32] = tested on: SNB-19 CNS
[33] = tested on: SN12C renal
[34] = tested on: COLO 205 colon
[35] = tested on: K-562 leukemia
[36] = tested on: NCI/ADR-RES ovarian
[37] = tested on: OVCAR-5 ovarian
[38] = tested on: A549 NSCLC
[39] = tested on: MDA-N
[40] = tested on: RPMI-8226 leukemia
[41] = tested on: SK-MEL-2 melanoma
[42] = tested on: OVCAR-8 ovarian
[43] = tested on: HCT-116 colon
[44] = tested on: SK-OV-3 ovarian
[45] = tested on: CCRF-CEM leukemia
[46] = tested on: RXF 393 renal
[47] = tested on: HS 578T breast
[48] = tested on: 786-0 renal
[49] = tested on: MDA-MB-231 breast
[50] = tested on: ACHN renal
[51] = tested on: NCI-H23 lung
[52] = tested on: UO-31 renal
[53] = tested on: EKVX NSCLC
[54] = tested on: MCF7 breast
[55] = tested on: MALME-3M melanoma
[56] = tested on: UACC-257 melanoma
[57] = tested on: PC-3 prostate

NN/C(=N\S(=O)(=O)c1cc2ccccc2o1)Nc1ccc(Cl)cc1
TGI [1]: > 100 µM | TGI [2]: > 100 µM | TGI [3]: > 100 µM | TGI [4]: > 100 µM | TGI [5]: > 100 µM | TGI [6]: > 100 µM | TGI [7]: > 100 µM | TGI [8]: > 100 µM | TGI [9]: > 100 µM | TGI [10]: > 100 µM | TGI [11]: > 100 µM | TGI [12]: > 100 µM | TGI [13]: > 100 µM | TGI [14]: > 100 µM | TGI [15]: > 100 µM | TGI [16]: > 100 µM | TGI [17]: > 100 µM | TGI [18]: > 100 µM | TGI [19]: > 100 µM | TGI [20]: > 100 µM | TGI [21]: > 100 µM | TGI [22]: > 100 µM | TGI [23]: > 100 µM | TGI [24]: > 100 µM | TGI [25]: > 100 µM | TGI [26]: 59.5 µM | TGI [27]: 68.3 µM | TGI [28]: > 100 µM | TGI [29]: > 100 µM | TGI [30]: > 100 µM | TGI [31]: 85.8 µM | TGI [32]: > 100 µM | TGI [33]: > 100 µM | TGI [34]: > 100 µM | TGI [35]: > 100 µM | TGI [36]: > 100 µM | TGI [37]: > 100 µM | TGI [38]: > 100 µM | TGI [39]: > 100 µM | TGI [40]: > 100 µM | TGI [41]: > 100 µM | TGI [42]: > 100 µM | TGI [43]: > 100 µM | TGI [44]: > 100 µM | TGI [45]: > 100 µM | TGI [46]: 64.2 µM | TGI [47]: 97.2 µM | TGI [48]: > 100 µM | TGI [49]: > 100 µM | TGI [50]: > 100 µM | TGI [51]: > 100 µM | TGI [52]: > 100 µM | TGI [53]: > 100 µM | TGI [54]: > 100 µM | TGI [55]: > 100 µM | TGI [56]: > 100 µM | TGI [57]: > 100 µM
